This note sets out measurements from patent US20230088286A1, “USP7 INHIBITOR FOR USE IN THE TREATMENT OF CANCER” (ALMAC DISCOVERY LIMITED, priority 2020, published 2023).

In assay [1] the test system is CT-26 tumours. Put plainly: Flow cytometry of tumour infiltrating immune cells, CT-26 model (ADC-159). To be noted: ADC-159 alone or in combination with ICIs, 13 days. Format: in vivo, mouse. The procedure: FIG. 40: USP7 inhibitor ADC-159 modulates the tumour microenvironment immune compartment in vivo.
(§1) Harvested tumours were collected in HBSS medium, minced and incubated 30 minutes at 37° C. in non-enzymatic cell dissociation buffer followed by mechanical dissociation through a 70 μm filter. Viable cells were then enriched using Ficoll® gradient. All cells suspensions were count and one million viable cells were seeded in 96-well plates in 100 μL of Staining Buffer for acquisition. Non-specific binding was performed using mouse FcR blocking reagent. Viobility 405/452 Fixable Dye (Miltenyi Biotec) was used to assess cell viability. The antibodies directed against the CD45, CD335 (Nkp46), FoxP3 CD8a, CD4, CD3e, CD19, F4/80, CD11c, CD11 b (Miltenyi Biotec), Ly6G and Ly6C (Biolegend) were added. The stained cells were analyzed with a Fortessa X20 cytometer (BD Biosciences).
On the technique in general: Flow cytometry measures light scatter and fluorescence of single cells or particles in a stream.

Another assay concerns the target USP7 (Homo sapiens, UniProt Q93009). Put plainly: TE (HCT116). Format: cell-based.
The target in a further assay is hERG (Homo sapiens, UniProt Q12809). Description: hERG.
Chain of hERG (Q12809 whole entry): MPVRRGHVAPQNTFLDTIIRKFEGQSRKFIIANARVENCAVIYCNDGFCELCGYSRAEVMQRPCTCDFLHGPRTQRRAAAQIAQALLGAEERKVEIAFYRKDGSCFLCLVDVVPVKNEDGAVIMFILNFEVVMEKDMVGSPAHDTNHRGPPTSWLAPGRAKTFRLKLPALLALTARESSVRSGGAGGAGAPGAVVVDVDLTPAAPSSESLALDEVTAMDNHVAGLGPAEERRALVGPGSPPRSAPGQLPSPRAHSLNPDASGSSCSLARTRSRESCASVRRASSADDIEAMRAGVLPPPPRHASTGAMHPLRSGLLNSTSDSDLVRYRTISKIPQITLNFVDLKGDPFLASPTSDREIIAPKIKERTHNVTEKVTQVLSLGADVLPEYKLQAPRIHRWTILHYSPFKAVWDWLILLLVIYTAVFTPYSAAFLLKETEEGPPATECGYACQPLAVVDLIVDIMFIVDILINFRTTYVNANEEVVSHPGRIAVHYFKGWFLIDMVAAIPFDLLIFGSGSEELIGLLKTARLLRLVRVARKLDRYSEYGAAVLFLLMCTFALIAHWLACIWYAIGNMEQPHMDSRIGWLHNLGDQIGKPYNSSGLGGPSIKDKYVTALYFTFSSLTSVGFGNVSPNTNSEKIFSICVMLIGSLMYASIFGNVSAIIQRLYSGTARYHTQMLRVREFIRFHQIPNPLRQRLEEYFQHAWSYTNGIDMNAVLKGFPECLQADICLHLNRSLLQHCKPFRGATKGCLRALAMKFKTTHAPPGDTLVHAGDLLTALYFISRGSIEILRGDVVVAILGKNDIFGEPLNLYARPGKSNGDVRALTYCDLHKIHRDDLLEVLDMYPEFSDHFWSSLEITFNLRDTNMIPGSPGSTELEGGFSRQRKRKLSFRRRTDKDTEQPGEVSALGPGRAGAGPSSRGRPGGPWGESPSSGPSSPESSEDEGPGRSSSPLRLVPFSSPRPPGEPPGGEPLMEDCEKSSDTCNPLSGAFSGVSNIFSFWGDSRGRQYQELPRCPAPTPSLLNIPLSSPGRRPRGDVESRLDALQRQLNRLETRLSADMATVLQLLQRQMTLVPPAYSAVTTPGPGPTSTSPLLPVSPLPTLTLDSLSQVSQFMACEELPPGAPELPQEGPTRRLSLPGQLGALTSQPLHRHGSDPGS
The subject of assay [2] is HT29, H1299, LNCaP and MCF-7 cells. Description: sVEGF ELISA in cancer cells. To be noted: MCF-7, HT29, H1299, compared to vehicle-treated cells. Format: cell-based, human. The method, then: Levels of sVEGF released to cell culture media was measured by ELISA.
(§2) For the co-culture experiments, 5×10^4 cancer cells were seeded in transwell in 0.5 mL complete growth medium and placed on the top of 0.1×10^6 fibroblasts plated in 12-well in 1 mL low serum growth media overnight. Following day cancer cells were washed with PBS and media replaced with reduced (1%) serum growth media. 0.5×10^6 PBMC were plated on top of fibroblasts, incubated for 45 min and activated with CD3 (1 μg/ml final concentration) and CD28 (5 μg/ml final concentration). […] Monoculture experiments, 0.1×10^6 cells were seeded in 12-well in 1 mL of complete growth media (cancer cells) or low serum growth media (fibroblasts) and incubated overnight. […] Afterwards, cell culture media was collected, cell debris were removed by centrifugation the concentration of VEGF in the cell culture supernatants was measured using the human/mouse VEGF immunoassay Quantikine ELISA kit (R&D systems, Minneapolis, Minn., USA) according to the manufacturer's instructions. For the intracellular VEGF detection, total protein concentration was determined by BCA (Pierce Chemical, USA) and VEGF levels determined using the same kit described above.

For assay [3], the system named is activated primary fibroblasts WI38, IMR90 and HDF. Put plainly: sVEGF ELISA in activated primary fibroblasts. Type of assay: cell-based, human. To be noted: fibroblasts activated with anti-CD3/anti-CD28 stimulated PBMCs, FGF-2 or TGFβ.
Text: FIG. 5: USP7 inhibition decreased secreted VEGF levels in activated fibroblasts. The USP7-mediated decrease in VEGF secretion observed in the co-cultures can be solely attributed to modulation of secreted VEGF in primary fibroblasts.
(FIG. 4). […] During the wound healing process or following stimulation by acute or chronic inflammatory signals, fibroblasts acquire an activated phenotype (referred to as myofibroblasts). Once activated, myofibroblasts proliferate and migrate, show contractile activity, exert physical forces to modify tissue architecture and become transcriptionally active leading to the secretion of cytokines, chemokines and extra-cellular matrix (ECM) components. In the tumour microenvironment, the majority of residual fibroblasts become activated and are known as cancer associated fibroblasts (CAF). In order to generate a myofibroblast phenotype, WI38, IMR90 and HDF were co-cultured with anti-CD3/anti-CD28 stimulated PBMCs or were stimulated by FGF-2 or TGFβ. […] The USP7 inhibitor-mediated decrease in VEGF secretion was only observed in primary fibroblasts; immortalized lung fibroblasts (WI38-VA13) were insensitive to USP7 inhibitor treatment, probably due to the destabilized p53 in the SV-40 immortalized fibroblasts (FIG. 7).
as §2
For orientation: ELISA stands for enzyme-linked immunosorbent assay.

Assay [4] relates to immortalized lung fibroblasts (WI38-VA13). Put plainly: sVEGF ELISA in immortalized fibroblasts. To be noted: SV-40 immortalized, destabilized p53. Format: cell-based, human. The method, then: FIG. 7: USP7 inhibition-mediated decrease in VEGF secretion is dependent on a functional p53 pathway.
as §2

The test system of assay [5] is primary fibroblasts, cancer cells, immortalized fibroblasts. Put plainly: intracellular VEGF ELISA in cell lysates. Format: cell-based, human. To be noted: 48 h. The method, then: as §2
The next assay concerns HUVEC. Put plainly: Matrigel tube formation assay. Format: cell-based, human. To be noted: 6 hours. The method, then:
FIG. 28: USP7 inhibition has no direct effect on HUVEC tube formation in vitro. […] The tube formation images were taken after 6 h after tube initiation.
Each well of a pre-chilled 96-well plate was coated with 50 μL of unpolymerized growth factor reduced Matrigel® (9.2 mg/mL) and incubated at 37° C. in 5% CO2 for 2 h. HUVECs were harvested with trypsin, and 1.5×10^4 cells were resuspended in 100 μL complete endothelial cell growth medium. […] After approximately 6 hours of incubation at 37° C. in 5% CO2, images of the center of each were taken at 4× magnification.

A further assay relates to MMP-2. Description: MMP-2 in supernatants of HDF and HUVEC co-culture (Luminex). Conditions: supernatants after 14 days. Type of assay: cell-based, human. The procedure: Cell culture supernatants from tube formation were collected and MMP-2 levels were measured using Luminex®.
Next, the underlying mechanism of tube formation inhibition was investigated. […] To determine whether secretion of MMP-2 is modulated by USP7 inhibition, supernatants from HUVEC and HDF co-cultures were collected after 14 days.
Concentrations of MMP2 and MMP7 were determined in cell culture supernatants in triplicates using Luminex human cytokine/chemokine multiplex kits (Millipore, St. Charles, Mo., USA) according to the manufacturer's protocol.

The test system of a further assay is VEGF. Description: Circulating serum VEGF by ELISA in CT-26 tumour bearing mice. Format: in vivo, mouse. Conditions: day 15 post tumour grafting.
Assay [6] concerns CT-26 tumours. Description: Flow cytometry of tumour infiltrating immune cells, CT-26 model (AD-04). Format: in vivo, mouse. To be noted: dosed 10 days. The procedure:
FIG. 32: USP7 inhibition modulates the tumour microenvironment immune compartment. […] Flow cytometry analysis of tumour infiltrating immune cells in the CT-26 syngeneic model dosed with the USP7 inhibitor for 10 days.
as §1

Chain of USP7 (Q93009 whole entry): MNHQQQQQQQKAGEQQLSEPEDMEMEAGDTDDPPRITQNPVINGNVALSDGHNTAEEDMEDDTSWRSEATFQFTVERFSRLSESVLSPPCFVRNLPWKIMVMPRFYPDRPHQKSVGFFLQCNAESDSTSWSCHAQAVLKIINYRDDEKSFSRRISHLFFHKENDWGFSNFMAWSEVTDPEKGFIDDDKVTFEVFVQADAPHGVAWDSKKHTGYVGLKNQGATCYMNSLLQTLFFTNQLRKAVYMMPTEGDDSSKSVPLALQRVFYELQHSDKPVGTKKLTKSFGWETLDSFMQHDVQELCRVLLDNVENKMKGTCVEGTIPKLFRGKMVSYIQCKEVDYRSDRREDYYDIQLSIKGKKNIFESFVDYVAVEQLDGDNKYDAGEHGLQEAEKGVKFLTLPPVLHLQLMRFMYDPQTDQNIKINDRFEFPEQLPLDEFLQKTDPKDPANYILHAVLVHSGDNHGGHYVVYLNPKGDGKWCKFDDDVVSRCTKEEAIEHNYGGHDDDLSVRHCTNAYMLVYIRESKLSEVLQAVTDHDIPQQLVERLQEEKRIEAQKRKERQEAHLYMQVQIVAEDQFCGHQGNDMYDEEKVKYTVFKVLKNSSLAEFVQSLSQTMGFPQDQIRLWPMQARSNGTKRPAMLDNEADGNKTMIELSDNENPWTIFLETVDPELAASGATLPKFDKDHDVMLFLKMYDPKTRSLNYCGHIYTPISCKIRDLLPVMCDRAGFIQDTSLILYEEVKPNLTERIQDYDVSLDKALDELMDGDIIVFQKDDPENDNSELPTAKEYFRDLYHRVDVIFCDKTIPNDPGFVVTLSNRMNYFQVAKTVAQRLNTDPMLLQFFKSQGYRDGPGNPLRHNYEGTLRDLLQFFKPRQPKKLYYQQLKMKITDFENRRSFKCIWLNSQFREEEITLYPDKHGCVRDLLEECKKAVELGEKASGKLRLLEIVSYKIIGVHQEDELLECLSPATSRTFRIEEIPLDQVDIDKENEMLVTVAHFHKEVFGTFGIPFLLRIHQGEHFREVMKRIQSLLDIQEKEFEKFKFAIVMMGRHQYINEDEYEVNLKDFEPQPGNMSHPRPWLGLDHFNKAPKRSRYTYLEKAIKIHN

Take `CC1(C(=O)N2CCC(O)(Cn3cnc4c(cc(Cl)n4-c4ccc5c(c4)CCO5)c3=O)CC2)CC1` [ADC-159, 6-Chloro-7-(2,3-dihydrobenzofuran-5-yl)-3-((4-hydroxy-1-(1-methylcyclopropane-1-carbonyl)piperidin-4-yl)methyl)-3,7-dihydro-4H-pyrrolo[2,3-d]pyrimidin-4-One]: the “recruitment of cytotoxic lymphocytes into the tumour” value in the assay on CT-26 tumours [1] is reported as “increases recruitment”. Moreover, the EC50 (in general, the concentration at which the effect is half-maximal) at USP7 is 0.126 µM. It took 15.6 µM to reach half-maximal inhibition at hERG (IC50).
On to `C[C@H](CC(=O)N1CCC(O)(Cn2cnc3c(-c4ccc(CN)cc4)n(C)nc3c2=O)CC1)c1ccccc1` [AD-04, (R)-3-(4-(Aminomethyl)phenyl)-6-((4-hydroxy-1-(3-phenylbutanoyl)piperidin-4-yl)methyl)-2-methyl-2H-pyrazolo[4,3-d]pyrimidin-7(6H)-one], for which the “sVEGF levels in supernatants of cancer cell lines” value in assay [2] is given as “not significantly affected”. In addition, in [3], the sVEGF protein levels result is “dose-dependent decrease”. Besides, the VEGF secretion entry in [4] is on record as “insensitive”. The “intracellular VEGF levels” value in assay [5] (cancer cells or immortalized fibroblasts) is reported as “not in cancer cells or immortalized fibroblasts”. Besides, the “intracellular VEGF levels” value in assay [5] (primary fibroblast lysates) is “decreases”. The “HUVEC tube formation on Matrigel” value in the assay on HUVEC is reported as “did not disrupt”. The MMP-2 levels result in the assay on MMP-2 is “decreases”. Further, the “circulating VEGF in mouse serum” value in the assay with VEGF is “significant dose-dependent decrease”. Also, in the assay with CT-26 tumours [6], the “CD4 lymphocytes among TILs” value was “no significant change”, the “cytotoxic T-lymphocytes among TILs” value was “significant increase” and the “macrophages in myeloid cell infiltrate” value is “decrease”.
